Measured values published in patent US20250326767A1, “NOVEL BENZOTHIAZOLE DERIVATIVES” (CARNA BIOSCIENCES, INC., priority 2021, published 2025).

Key:
Test in all cases: Inhibition test on activity of DYRK family, mobility shift assay (MSA)
Format in all cases: biochemical
DYRK1A = biological target: T1, DYRK1A (Homo sapiens, UniProt Q13627); conditions: ATP 100 μM; FITC-labeled DYRKtide peptide substrate; room temperature 1 hour; read-out: Inhibitory Activity DYRK1A (IC50 class)
T1 construct: purchased Carna Biosciences, Inc. 04-130
Protocol: (§1) The kinase activity was measured by mobility shift assay (MSA) method using QuickScout Screening Assist™ MSA (commercially available kit manufactured by Carna Biosciences, Inc.). The substrate of the kinase reaction used was an FITC-labeled DYRKtide peptide included in the kit. An assay buffer [20 mM HEPES, 0.01% Triton X-100™, 2 mM dithiothreitol, pH 7.5] was used to create a substrate mixture solution with a substrate (4 μM), MgCl2 (20 mM), and ATP (DYRK1A: 100 μM; DYRKIB: 200 μM; DYRK2:40 μM; and DYRK3:20 μM). In addition, kinases (DYRK1A: manufactured by Carna Biosciences, Inc., Cat. No. 04-130; DYRK1B: manufactured by Carna Biosciences, Inc., Cat. No. 04-131; DYRK2; manufactured by Carna Biosciences, Inc., Cat. No. 04-132; and DYRK3; manufactured by Carna Biosciences, Inc., Cat. No. 04-133) were diluted with the assay buffer to prepare enzyme solutions (DYRK1A: 0.2 ng/μL; DYRK1B: 0.08 ng/μL; DYRK2: 0.04 ng/μL; and DYRK3:0.25 ng/μL). The 10 mM solution of the test compound in DMSO was further diluted with DMSO to 10 levels of the concentration (0.00003 mM, 0.0001 mM, 0.0003 mM, 0.001 mM, 0.003 mM, 0.01 mM, 0.03 mM, 0.1 mM, 0.3 mM, and 1 mM), each of which was subjected to 25-fold dilution with the assay buffer to obtain a drug solution (4% DMSO solution). 5 μL of the drug solution or a control solution (4% DMSO-assay buffer), 5 μL of the substrate mixture solution, and 10 μL of the enzyme solution were mixed in the wells of a polypropylene 384-well plate and allowed to react at room temperature for 1 hour, and then the reaction was quenched by adding 60 μL of the termination buffer included in the kit. Subsequently, the quantities of the substrates(S) and the phosphorylated substrate (P) in the reaction solution were measured using LabChip EZ Reader II system (manufactured by Caliper Life Sciences) according to the protocol of the assay kit.
(§2) The heights of the peaks of the “substrate” and the “phosphorylated substrate” were expressed as S and P, respectively, and a blank containing the assay buffer instead of the enzyme solution was also measured.
(§3) The inhibition rate (%) of the test compound was calculated according to the following equation: […]
(§4) wherein, A, B, and C represent P/(P+S) of the blank well, P/(P+S) of the control solution well, and P/(P+S) of the compound-containing well, respectively.
(§5) The IC50 value was calculated via a regression analysis of the inhibition rate and the test compound concentration (logarithmic value).

DYRK1B = biological target: T2, DYRK1B (Homo sapiens, UniProt Q9Y463); conditions: ATP 200 μM; FITC-labeled DYRKtide peptide substrate; room temperature 1 hour; read-out: Inhibitory Activity DYRK1B (IC50 class)
T2 construct: purchased Carna Biosciences, Inc. 04-131
Protocol: as §1, §2, §3, §4, §5

DYRK2 = biological target: T3, DYRK2 (Homo sapiens, UniProt Q92630); conditions: ATP 40 μM; FITC-labeled DYRKtide peptide substrate; room temperature 1 hour; read-out: Inhibitory Activity DYRK2 (IC50 class)
T3 construct: purchased Carna Biosciences, Inc. 04-132
T3 sequence (Q92630 1-601): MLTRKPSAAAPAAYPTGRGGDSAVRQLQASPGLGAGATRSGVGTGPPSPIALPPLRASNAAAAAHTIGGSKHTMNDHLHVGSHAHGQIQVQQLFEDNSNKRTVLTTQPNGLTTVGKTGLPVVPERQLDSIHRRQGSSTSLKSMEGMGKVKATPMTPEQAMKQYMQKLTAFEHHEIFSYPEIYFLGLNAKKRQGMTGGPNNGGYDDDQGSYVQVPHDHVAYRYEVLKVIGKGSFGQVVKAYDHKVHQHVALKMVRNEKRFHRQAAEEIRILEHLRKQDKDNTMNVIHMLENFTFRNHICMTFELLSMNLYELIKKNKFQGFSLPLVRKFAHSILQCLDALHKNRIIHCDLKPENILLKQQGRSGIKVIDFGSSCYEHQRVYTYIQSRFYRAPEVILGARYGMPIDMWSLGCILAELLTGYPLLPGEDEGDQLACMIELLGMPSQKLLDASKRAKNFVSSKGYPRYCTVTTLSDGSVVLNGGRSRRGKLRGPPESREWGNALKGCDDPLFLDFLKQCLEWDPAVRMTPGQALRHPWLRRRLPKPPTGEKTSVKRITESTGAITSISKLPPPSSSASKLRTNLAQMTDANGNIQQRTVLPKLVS
Protocol: as §1, §2, §3, §4, §5

DYRK3 = biological target: T4, DYRK3 (Homo sapiens, UniProt O43781); conditions: ATP 20 μM; FITC-labeled DYRKtide peptide substrate; room temperature 1 hour; read-out: Inhibitory Activity DYRK3 (IC50 class)
T4 construct: purchased Carna Biosciences, Inc. 04-133
T4 sequence (O43781 1-588): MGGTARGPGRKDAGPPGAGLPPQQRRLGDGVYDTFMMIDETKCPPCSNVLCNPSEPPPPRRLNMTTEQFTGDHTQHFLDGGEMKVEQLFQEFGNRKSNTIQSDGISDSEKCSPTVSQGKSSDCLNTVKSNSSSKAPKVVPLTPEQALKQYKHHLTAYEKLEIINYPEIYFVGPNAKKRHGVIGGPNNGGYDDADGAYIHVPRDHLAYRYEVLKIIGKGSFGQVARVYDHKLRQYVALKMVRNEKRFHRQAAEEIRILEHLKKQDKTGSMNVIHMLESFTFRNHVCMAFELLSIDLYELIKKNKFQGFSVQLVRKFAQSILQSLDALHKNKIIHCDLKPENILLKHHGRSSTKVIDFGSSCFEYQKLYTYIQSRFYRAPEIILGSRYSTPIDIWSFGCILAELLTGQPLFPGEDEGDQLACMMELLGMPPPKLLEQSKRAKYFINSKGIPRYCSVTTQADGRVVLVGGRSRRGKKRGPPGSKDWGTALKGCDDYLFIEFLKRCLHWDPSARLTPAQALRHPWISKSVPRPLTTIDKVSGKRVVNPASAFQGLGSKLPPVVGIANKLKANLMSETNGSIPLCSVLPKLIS
Protocol: as §1, §2, §3, §4, §5

T2 sequence (Q9Y463 whole entry): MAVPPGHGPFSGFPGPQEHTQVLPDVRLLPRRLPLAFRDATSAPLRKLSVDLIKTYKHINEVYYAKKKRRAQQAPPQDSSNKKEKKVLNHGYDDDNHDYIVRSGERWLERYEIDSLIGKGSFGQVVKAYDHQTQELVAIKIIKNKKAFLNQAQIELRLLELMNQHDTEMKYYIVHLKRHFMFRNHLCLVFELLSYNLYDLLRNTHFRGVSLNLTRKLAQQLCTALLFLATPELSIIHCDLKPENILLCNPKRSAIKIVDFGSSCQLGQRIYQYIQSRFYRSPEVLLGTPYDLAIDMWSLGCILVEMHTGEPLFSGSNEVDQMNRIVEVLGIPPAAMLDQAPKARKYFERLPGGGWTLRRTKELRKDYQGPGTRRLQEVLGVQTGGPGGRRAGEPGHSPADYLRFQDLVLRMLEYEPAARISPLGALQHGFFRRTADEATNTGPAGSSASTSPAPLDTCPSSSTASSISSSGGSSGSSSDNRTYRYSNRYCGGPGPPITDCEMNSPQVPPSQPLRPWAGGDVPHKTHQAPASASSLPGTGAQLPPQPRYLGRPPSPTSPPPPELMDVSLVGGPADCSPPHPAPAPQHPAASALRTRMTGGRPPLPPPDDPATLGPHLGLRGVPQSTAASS

| SMILES | IC50 (DYRK1A) [nM] | IC50 (DYRK1B) [nM] | IC50 (DYRK2) [nM] | IC50 (DYRK3) [nM] |
| --- | --- | --- | --- | --- |
| CC#CC1C[C@H](C)NC(=O)N1c1nc2c3c(ccc2s1)OCC3 (stereo in doubt) [Example 16, (4S,6S)-1-(7,8-dihydrobenzofuro[4,5-d]thiazol-2-yl)-4-methyl-6-(prop-1-yn-1-yl)tetrahydropyrimidin-2(1H)-one] | > 1000 | > 1000 | > 1000 | > 1000 |
| CC#C[C@H]1C[C@@H](C)NC(=O)N1c1nc2c3c(ccc2s1)OCC3 [Example 14, (4R,6R)-1-(7,8-dihydrobenzofuro[4,5-d]thiazol-2-yl)-4-methyl-6-(prop-1-yn-1-yl)tetrahydropyrimidin-2(1H)-one] | > 1000 | > 1000 | > 1000 | > 1000 |

Other lines, results leading:

| IC50 (DYRK1A) [nM] | IC50 (DYRK1B) [nM] | IC50 (DYRK2) [nM] | IC50 (DYRK3) [nM] | SMILES |
| --- | --- | --- | --- | --- |
| < 10 | < 10 | 100 to 1000 | 100 to 1000 | CC#CC1CCNC(=O)N1c1nc2c3c(ccc2s1)OCCO3 (single isomer, unassigned) [Example 5, 1-(7,8-dihydro-[1,4]dioxyno[2′,3′:5,6]benzo[1,2-d]thiazol-2-yl)-6-(prop-1-yn-1-yl)tetrahydropyrimidin-2(1H)-one] |
| – | > 1000 | > 1000 | > 1000 | CC#C[C@H]1[C@H](C)CNC(=O)N1c1nc2c3c(ccc2s1)OCC3 (stereo in doubt) [Example 13, (5R*,6R*)-1-(7,8-dihydrobenzofuro[4,5-d]thiazol-2-yl)-5-methyl-6-(prop-1-yn-1-yl)tetrahydropyrimidin-2(1H)-one] |
| 10 to 100 | 10 to 100 | > 1000 | > 1000 | CC#CC1C[C@H](C)NC(=O)N1c1nc2c3c(ccc2s1)OCC3 (stereo in doubt) [Example 17, (4S,6R)-1-(7,8-dihydrobenzofuro[4,5-d]thiazol-2-yl)-4-methyl-6-(prop-1-yn-1-yl)tetrahydropyrimidin-2(1H)-one] |
| 10 to 100 | 10 to 100 | > 1000 | > 1000 | CC#C[C@@H]1C[C@@H](C)NC(=O)N1c1nc2c3c(ccc2s1)OCC3 [Example 15, (4R,6S)-1-(7,8-dihydrobenzofuro[4,5-d]thiazol-2-yl)-4-methyl-6-(prop-1-yn-1-yl)tetrahydropyrimidin-2(1H)-one] |
